Laboratory results reported in PubChem BioAssay (NCI).
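The compound was tested at five concentrations on cells cultured in 96-well plates, with a 48-hour exposure period. GI50: concentration for 50% inhibition of growth. The concentration for full growth arrest is given as TGI.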

Tests used:
Assay in all cases: NCI-60 cell line screen, 48 h
[1] = system: UACC-257 melanoma
[2] = system: PC-3 prostate
[3] = system: HOP-92 NSCLC
[4] = system: SF-268 CNS
[5] = system: HS 578T breast
[6] = system: OVCAR-8 ovarian
[7] = system: SF-295 CNS
[8] = system: OVCAR-3 ovarian
[9] = system: DU-145 prostate
[10] = system: CAKI-1 renal

| SMILES | GI50 [1] | TGI [1] | GI50 [2] | TGI [2] | GI50 [3] | TGI [3] | GI50 [4] | TGI [4] | GI50 [5] | TGI [5] | GI50 [6] | TGI [6] | GI50 [7] | TGI [7] | GI50 [8] | TGI [8] | GI50 [9] | TGI [9] | GI50 [10] | TGI [10] |
| --- | --- | --- | --- | --- | --- | --- | --- | --- | --- | --- | --- | --- | --- | --- | --- | --- | --- | --- | --- | --- |
| NC(N)=N/N=C/c1ccc(-c2ccc(-c3cc(Cl)cc(Cl)c3)s2)cc1 | 1.94 µM | 4.22 µM | 1.58 µM | 3.16 µM | 1.41 µM | 3.13 µM | 1.85 µM | 4.22 µM | 1.78 µM | 4.05 µM | 2.48 µM | 6.34 µM | 1.84 µM | 3.47 µM | 1.71 µM | 3.27 µM | 1.74 µM | 3.18 µM | 1.58 µM | 3.31 µM |
| COc1ccc(/C=C2\C=C(c3ccccc3)N(CCc3ccccc3)C2=O)cc1OC | 20.2 µM | 86.8 µM | 21.1 µM | > 100 µM | 2.54 µM | 8.17 µM | 8.18 µM | 26.5 µM | 3.66 µM | 23.4 µM | 6.09 µM | 22.5 µM | 5.95 µM | 24 µM | 4.82 µM | 17.8 µM | 13.2 µM | > 100 µM | 7.53 µM | > 100 µM |
| Cc1cc(N(CCCl)CCCl)ccc1C=Nc1ccc2ccccc2c1 | 3.17 µM | > 39.6 µM | 17 µM | > 100 µM | 11.8 µM | 61.1 µM | 15.8 µM | > 100 µM | 34.3 µM | > 100 µM | 24.3 µM | > 100 µM | 2.08 µM | > 55.8 µM | 14.8 µM | > 77 µM | 7.71 µM | > 100 µM | 1.51 µM | > 100 µM |
| O=C1c2cc([N+](=O)[O-])ccc2-c2ccc3c4ccc5c6c(ccc(c7ccc1c2c73)c64)C(=O)c1cc([N+](=O)[O-])ccc1-5 |  | > 100 µM |  | > 100 µM |  | > 100 µM |  | > 100 µM |  | > 100 µM |  | > 100 µM |  | > 100 µM |  | > 100 µM |  | > 100 µM |  | > 100 µM |
| Clc1ccc(OCc2nnc3n2N=C(c2ccc(Cl)cc2Cl)CS3)cc1 | 25 µM | 50 µM | 27.6 µM | > 100 µM | 14.3 µM | 41.2 µM | 17.4 µM | 40.2 µM | 29.1 µM | 71 µM | 25.4 µM | 52.7 µM | 13.7 µM | 44.2 µM | 17.8 µM | 50.7 µM | 31.2 µM | > 100 µM | 25.9 µM | 79.7 µM |
| NCC1OC(OC2C(CO)OC(OC3C(O)C(N)CC(N)C3OC3OC(CO)C(O)CC3N)C2O)C(N)C(O)C1OC1OC(CO)C(O)C(O)C1O (stereo not given) | > 50 µg/mL | > 50 µg/mL | > 50 µg/mL | > 50 µg/mL | 14.7 µg/mL | > 50 µg/mL | > 50 µg/mL | > 50 µg/mL | > 50 µg/mL | > 50 µg/mL | > 50 µg/mL | > 50 µg/mL | > 50 µg/mL | > 50 µg/mL | > 50 µg/mL | > 50 µg/mL | > 50 µg/mL | > 50 µg/mL | > 50 µg/mL | > 50 µg/mL |
| Cn1cc(C2=C(c3cn(C)c4ccccc34)C(=O)NC2=O)c2ccccc21 | 4.17 µM | > 25 µM | 1.12 µM | > 25 µM | 1.45 µM | > 7.23 µM | 3.1 µM | > 25 µM | 0.7 µM | > 19.9 µM | 2.96 µM | > 25 µM | 0.903 µM | > 25 µM | 0.646 µM | > 6.67 µM | 1.66 µM | > 25 µM | 1.2 µM | > 25 µM |
| O=C(Nc1ccc(/C=C/c2ccc(NC(=O)c3cc(S(=O)(=O)O)c4cccnc4c3O)cc2S(=O)(=O)O)c(S(=O)(=O)O)c1)c1cc(S(=O)(=O)O)c2cccnc2c1O | 25.8 µM | > 56.3 µM | 32.2 µM | > 78.3 µM | 28.5 µM | 89.4 µM | 7.99 µM | > 100 µM | > 53.1 µM | > 74.8 µM | 9.66 µM | > 72.4 µM | 34.4 µM | > 76.8 µM | > 56.9 µM | > 72.2 µM | 17.7 µM | > 50.7 µM | 34.3 µM | > 75.2 µM |
